Measured values reported in patent US20100196915A1, “Method of Detecting Oncogenesis of Hematopoietic Cells” (UNIVERSITY OF SOUTH FLORIDA, priority 2007, published 2010).

Assays:
Type in all cases: cell-based
[1] = system: 32D cells transformed with IL-27R; assay: Cell growth and viability by trypan blue exclusion, JAK inhibitor I studies
Method: (§1) 32D cells were washed twice with RPMI containing 0.1% BSA and incubated in the same medium with either 0.1% DMSO, 0.5 μM or 2 μM JAK inhibitor I (EMD Biosciences/Calbiochem) for 3 hours before lysis. For cell growth and viability, cells were plated at a concentration of 2×10^5/ml in RPMI/10% FBS and either 0.1% DMSO or 0.5 μM JAK inhibitor I. Cell growth and viability were determined by trypan blue exclusion. After 24 hr of JAK inhibitor I treatment, the percentage of apoptotic cells and cell cycle profiles were determined by flow cytometry. See supporting information.
The role of JAK family kinases in transformation by IL-27R was addressed by culturing 32D/IL-27R transformed cells with the pan-JAK inhibitor, JAK inhibitor I (Thompson, J. E., et al., Photochemical preparation of a pyridone containing tetracycle: a Jak protein kinase inhibitor. Bioorg. Med. Chem. Lett., 2002 Apr. 22; 12(8):1219-23). Cells transformed with IL-27R were cultured in the presence of 0.1% DMSO or 0.5 μM JAK inhibitor I on day 0. […] Cell viability, determined using trypan blue, also decreases in the presence of the inhibitor, seen in FIG. 4(A). […] Transformed 32D cells were cultured in the presence of 0.1% DMSO (lane 2), 0.5 μM (lane 3) or 2 μM (lane 4) JAK inhibitor I. Control 32D cells starved of serum/IL-3 in the presence of 0.1% DMSO for three hr is shown in lane 1. […]

[2] = system: 32D cells transformed with IL-27R; assay: Cell cycle profile by flow cytometry of PI-stained cells; conditions: after 24 hr of treatment, FIG. 3(B)
Method: as §1
(§2) Flow Cytometry: Apoptosis and Cell Cycle Analysis. The percentage of apoptotic cells after 24 h JAK inhibitor I treatment was determined by flow cytometric analysis of annexin V-fluorescein (BD Biosciences) binding. […] Four-hundred microliters of 1× binding buffer was added to the samples and the cells were analyzed by flow cytometry. Flow cytometric analysis was performed on a FACS Scan instrument with CellQuest software (BD Biosciences) and data obtained were analyzed with FlowJo software (Tree Star). Cell cycle profiles after 24 h JAK inhibitor I treatment were determined by flow cytometric analysis of PI-stained cells. […] Stained cells were then analyzed by flow cytometry using a FACS Scan with CellQuest software and analyzed with FlowJo software (Tree Star). […]

[3] = system: 32D cells transformed with IL-27R; assay: Apoptosis by annexin V binding, flow cytometry; conditions: after 24 hr of treatment, FIG. 4(B)
Method: as §1, §2

[4] = system: JAK family kinases; assay: Immunoblot of STAT1, STAT3, STAT5 and ERK1/2 phosphorylation induced by IL-27R; conditions: 0.5 μM or 2 μM, 3 hours, FIG. 5
Method: Cells were washed in PBS and lysed in lysis buffer (25 mM Tris pH7.4, 150 mM NaCl, 25 mM NaF, 1% Triton-X100, 1 mM sodium vanadate, 2 mM sodium pyrophosphate, 10 μg/ml leupeptin, 2 μg/ml aprotinin, and 1 mM PMSF). Protein concentrations were determined by BCA protein assay kit (Pierce Biotechnology), and equal amounts of protein were analyzed by SDS-PAGE. Primary antibodies used in this study include: IL-27R (TCCR) (C-term) (Sigma), phospho-(P-) STAT1(Y701), P-STAT3(Y705), P-JAK1(Y1022/1023), P-JAK2(Y1007/1008), P-ERK(T202/Y204), JAK1, JAK2 (Cell Signaling Technology), P-STAT5(Y694) (BD Transduction Laboratories), STAT1, STAT3, STAT5, and ERK1 (Santa Cruz Biotechnology). Immunoblots were developed using ECL Western Blotting Substrate (Pierce Biotechnology).
as §1, with “information. […]” for “information.”

[5] = system: IL-27R-expressing 32D cells; assay: IL-27 stimulation, P-STAT1 immunoblot; conditions: 100 ng/ml IL-27, 10 min, cells lack gp130
Method: (§3) To stimulate cell cultures with IL-27, 32D and BaF3 cells expressing IL-27R were washed of growth factors and incubated in RPMI medium 1640 containing 0.1% BSA for 3 h. Cells were left untreated or stimulated with 100 ng/ml recombinant human IL-27 (R&D Systems) for 10 min. 293T cells were transfected with IL-27R, JAK2-V617F, and gp130 siRNA as indicated and as described. Two days later, cells were stimulated with 100 ng/ml human IL-27 for the length of time indicated and washed with ice-cold PBS, and cell lysates were prepared and analyzed by immunoblotting as described.
(§4) Finally, while IL-27R-mediated transformation is gp130-independent, these observations still support the paradigm that IL-27-mediated signaling requires gp130 (Pflanz, S., et al., J. Immunol., 2004 Feb. 15; 172(4):2225-31). […] Cells were left untreated or stimulated with 100 ng/ml IL-27 for 10 min and cell lysates analyzed by immunoblotting for phosphorylated (P-) and total STAT1. IL-27-induced signaling (as measured by STAT1 phosphorylation) is not observed in IL-27R-expressing 32D or BaF3 cells, which lack gp130, but is seen in IL-27R-expressing 293T cells, which express gp130, data not shown. […] Two days later, cells were stimulated with 100 ng/ml IL-27 for the length of time indicated, and cell lysates were prepared and analyzed by immunoblotting for P-STAT1, total STAT1, and gp130. […]

[6] = system: IL-27R-expressing BaF3 cells; assay: IL-27 stimulation, P-STAT1 immunoblot; conditions: 100 ng/ml IL-27, 10 min, cells lack gp130
Method: as §3, §4

[7] = system: IL-27R-expressing 293T cells; assay: IL-27 stimulation and gp130 siRNA depletion, P-STAT1 immunoblot
Method: as §3, §4

Molecule | cell growth ([1]; 0.5 μM JAK inhibitor I vs 0.1% DMSO, from day 0, FIG. 3(A)) | cell viability ([1]; 0.5 μM JAK inhibitor I, trypan blue, FIG. 4(A)) | cell cycle arrest [2] | number of cells in S-phase [2] | apoptosis (annexin V binding) [3] | ERK1/2 activation [4] | STAT1, -3 and -5 phosphorylation induced by IL-27R [4] | IL-27-induced signaling (STAT1 phosphorylation) [5] | IL-27-induced signaling (STAT1 phosphorylation) [6] | IL-27R/JAK2-V617F-mediated activation of STAT1 ([7]; 100 ng/ml IL-27, 293T cells transfected with IL-27R and JAK2-V617F) | IL-27-induced signaling (STAT1 phosphorylation) ([7]; 100 ng/ml IL-27, cells express gp130)
JAK inhibitor I | the growth of these cells ceases | decreases | induces a G1 as well as a G2 cell cycle arrest | dramatic decrease | induction of apoptosis | prevents | blocks |  |  |  | 
IL-27: recombinant human IL-27 (R&D Systems), cytokine used to stimulate cells (protein, UniProt Q8NEV9 29-243; Q14213 21-229, looked up) Interleukin-27 subunit alpha: FPRPPGRPQLSLQELRREFTVSLHLARKLLSEVRGQAHRFAESHLPGVNLYLLPLGEQLPDVSLTFQAWRRLSDPERLCFISTTLQPFHALLGGLGTQGRWTNMERMQLWAMRLDLRDLQRHLRFQVLAAGFNLPEEEEEEEEEEEEERKGLLPGALGSALQGPAQVSWPQLLSTYRLLHSLELVLSRAVRELLLLSKAGHSVWPLGFPTLSPQP Interleukin-27 subunit beta: RKGPPAALTLPRVQCRASRYPIAVDCSWTLPPAPNSTSPVSFIATYRLGMAARGHSWPCLQQTPTSTSCTITDVQLFSMAPYVLNVTAVHPWGSSSSFVPFITEHIIKPDPPEGVRLSPLAERQLQVQWEPPGSWPFPEIFSLKYWIRYKRQGAARFHRVGPIEATSFILRAVRPRARYYVQVAAQDLTDYGELSDWSLPATATMSLGK |  |  |  |  |  |  |  | not observed | not observed | not enhanced | is seen
